Measurements from US11400076B2, “Cancer stem cell inhibitor” (KEIO UNIVERSITY, priority 2017, dated 2022).

Legend:
[1] = test system: cancer stem cells (spheroid); assay: Spheroid cell death monitored with propidium iodide (PI); assay type: cell-based, mice; details: for cell death (PI positive area): spheroid, PI added, monitored over time, FIG. 4
Procedure: In accordance with the literature (Sampetrean O. et. al., Neoplasia, 13(9) 2011, 784 to 791), the subventricular zone was resected from Ink4a/Arf deficient mice and subjected to trypsin treatment to obtain spheroid-forming cells. The resulting spheroids were cultured in a culture medium containing no differentiation-inducing component (DMEM/F12 in which 20 ng/mL of EGF, 20 ng/mL of FGF, B27 supplement in which vitamin A was removed, 200 ng/mL of heparan sulfate, 100 U/mL of penicillin, and 100 U/mL of streptomycin were added) in a flow of 5% carbon dioxide at 37° C. […] These cells were transplanted to the brains of C57BL/6 mice, then the formed brain tumors were resected and subjected to trypsin treatment to obtain cells. Drug-resistant or fluorescent reporter-positive cells were sorted, and then cell cycle markers were introduced into part of the cells. Thus-obtained spheroid-forming cells were cultured under the above-described culturing condition, and used as a sample.

mitochondrial complex II = assay: Expression levels of mitochondrial complex I to V by electrophoresis and Western Blot; assay type: cell-based, mice; details: protein extracted from cells of Example 1, FIG. 7
Procedure: Furthermore, protein was extracted from cells of Example 1, and the expression levels of mitochondrial complex I to V were measured by electrophoresis and Western Blot.

[2] = test system: reactive oxygen species (ROS) in mitochondria; assay: Mito Sox staining, mitochondrial ROS by flow cytometry; assay type: cell-based, mice; details: FIG. 8
Excerpt: Using Mito Sox staining, reactive oxygen species (ROS) in mitochondria was quantified by flow cytometry for the cells cultured according to Example 1, with or without doranidazole, misonidazole, or metronidazole.

[3] = in vivo; cited from earlier work
[4] = test system: cancer stem cells (spheroid-forming cells); assay: Spheroid culture of cancer stem cells in 96-well plate with analyte; assay type: cell-based, mice; details: various concentration of analytes, medium without differentiation-inducing component, FIG. 2
Procedure: (§1) In accordance with the literature ([…]. et. al., Neoplasia, 13(9) 2011, 784 to 791), the subventricular zone was resected from Ink4a/Arf deficient mice and subjected to trypsin treatment to obtain spheroid-forming cells. The resulting spheroids were cultured in a culture medium containing no differentiation-inducing component (DMEM/F12 in which 20 ng/mL of EGF, 20 ng/mL of FGF, B27 supplement in which vitamin A was removed, 200 ng/mL of heparan sulfate, 100 U/mL of penicillin, and 100 U/mL of streptomycin were added) in a flow of 5% carbon dioxide at 37° C. Then, a constitutively active, mutated form of H-Ras and, as necessary, reporter cassettes for detecting, for example, fluorescent signals or selection marker for cell selection, for example, drug-resistant cassettes, were incorporated into cancer stem cells for transformation, and cultured to obtain spheroid-forming cells. These cells were transplanted to the brains of C57BL/6 mice, then the formed brain tumors were resected and subjected to trypsin treatment to obtain cells. Drug-resistant or fluorescent reporter-positive cells were sorted, and then cell cycle markers were introduced into part of the cells. Thus-obtained spheroid-forming cells were cultured under the above-described culturing condition, and used as a sample. […]

[5] = test system: cancer stem cells (spheroid-forming cells); assay: Monolayer culture of cancer stem cells, cell cycle and growth; assay type: cell-based, mice; details: various concentrations, FIG. 3
Procedure: as §1, with “sample. The above cells were subjected to monolayer culture.” for “sample.”

cancer stem cells [6] = assay: ATP levels in cancer stem cells; assay type: cell-based, mice; details: 21% oxygen (normoxic) and 1% oxygen (hypoxic), FIG. 6
Procedure: (§2) Since the cell cycle was arrested in the G1 phase, a decrease in energy metabolism was suspected. ATP levels under 21% oxygen (normoxic condition) and 1% oxygen (hypoxic condition) were measured using the same cells as in Example 1. […] From this, suppression of mitochondrial function was suspected, and so, mitochondrial function was evaluated by extracellular flux analysis.

[7] = test system: mitochondria in cancer stem cells; assay: Mitochondrial function by extracellular flux analysis; assay type: cell-based, mice; details: 21% oxygen (normoxic) and 1% oxygen (hypoxic), FIG. 6
Procedure: as §2

[8] = test system: undifferentiated cancer stem cells; assay: Effect with altered degree of induction of differentiation by serum; assay type: cell-based, mice; details: serum-free vs serum-containing medium, 4 days, FIG. 9
Excerpt: Using the method similar to Example 1, the degree of induction of differentiation was altered by changing the culture mediums, to observe the effect thereby. Specifically, a group cultured in a serum-free culture medium of Example 1 for consecutive 4 days; a group cultured in a serum-free culture medium for 3 days, and then cultured in a serum-containing culture medium for 1 day; a group cultured in a serum-containing culture medium for 3 days, and then cultured in a serum-free culture medium for 1 day; and the remaining one group cultured in a serum-containing culture medium for 4 days; were prepared. According to such culturing, the degree of induction of differentiation by serum was altered and the effect of doranidazole was confirmed.

cancer stem cells [9] = assay: Radiation-induced double-strand break, Hoechst 33324 and γH2AX double staining; assay type: cell-based, mice; details: irradiated, hypoxic condition, FIG. 10
Excerpt: Cells cultured according to the method of Example 1, with or without doranidazole, were irradiated, followed by double staining with Hoechst 33324 and γH2AX, and then double-strand break was quantified.

Structure (SMILES)	cell death (PI positive area) [1]	expression of complex II (mitochondrial complex II)	ROS in mitochondria [2]	LD50 [3]	suppression of doranidazole-induced cell death ([1]; compared to DMSO, necrostatin 1 and Z-VAD-FMK, FIG. 5)	growth of spheroids [4]	cell cycle [5]	growth [5]	type of cell death ([1]; inhibitor comparison, FIG. 5)	ATP content of cancer stem cells (cancer stem cells [6])	oxygen consumption of mitochondria [7]	reserve capacity of mitochondria [7]	effect depending on degree of induction of differentiation by serum [8]	radiation-induced double-strand break (cancer stem cells [9])
COCC(O)Cn1ccnc1[N+](=O)[O-] (centres unmarked) [misonidazole]	the cell death was similarly confirmed	remarkably decreased	significantly increases	about 1 g/kg										
CCOC(=O)c1ccc(NC2CCCCC2)c(N)c1 [ferrostatin 1]					significantly suppressed									
Cc1ncc([N+](=O)[O-])n1CCO [metronidazole]	no cell death was observed		not observed											
O=[N+]([O-])c1nccn1COC(CO)C(O)CO (centres unmarked) [doranidazole]	cell death is induced by doranidazole in dose dependent manner	remarkably decreased	significantly increases	≥ 5000 mg/kg		suppresses the growth of spheroids	arrests the cell cycle in the G1 phase	suppresses growth	ferroptosis	decreased	decreased depending on the concentration	decreased depending on the concentration	when the degree of induction of differentiation by serum is low, the effect of doranidazole is remarkable	significantly enhances
